Source: ChEMBL document CHEMBL4507289, “Data for DCP probe GSM1” (2021)
Calls of active or inactive are those of the source. The rule behind the calls is not given here.

How the values were obtained:
[1] = target: Protein-tyrosine kinase 6 (Homo sapiens) (UniProt Q13882); conditions: Compound concentration 1000.0 nM
[2] = target: Tyrosine-protein kinase SYK (Homo sapiens) (UniProt P43405); conditions: Compound concentration 1000.0 nM
[3] = target: Tyrosine-protein kinase ITK/TSK (Homo sapiens) (UniProt Q08881); conditions: Compound concentration 1000.0 nM
[4] = target: SNF-related serine/threonine-protein kinase (Homo sapiens) (UniProt Q9NRH2); conditions: Compound concentration 1000.0 nM
[5] = target: Serine/threonine-protein kinase LATS1 (Homo sapiens) (UniProt O95835); conditions: Compound concentration 1000.0 nM
[6] = target: Phosphatidylinositol 3-kinase catalytic subunit type 3 (Homo sapiens) (UniProt Q8NEB9); conditions: Compound concentration 1000.0 nM
[7] = target: Hepatocyte growth factor receptor (Homo sapiens) (UniProt P08581); conditions: Compound concentration 1000.0 nM
[8] = target: Phosphatidylinositol 3-kinase C2 domain-containing subunit gamma (Homo sapiens) (UniProt O75747); conditions: Compound concentration 1000.0 nM
[9] = target: Epidermal growth factor receptor (Homo sapiens) (UniProt P00533); conditions: Compound concentration 1000.0 nM
[10] = target: GABA-A receptor; anion channel (Rattus norvegicus) (UniProt O09028+P15431+P18506+P18508+P19969+P20236+P23574+P23576+P28471+P28473+P30191+P62813+P63079+P63138+Q91ZM7+Q9ES14); conditions: Compound concentration 10.0 uM
[11] = target: Vascular endothelial growth factor receptor 1 (Homo sapiens) (UniProt P17948); conditions: Compound concentration 1000.0 nM
[12] = target: Proto-oncogene tyrosine-protein kinase Src (Homo sapiens) (UniProt P12931); conditions: Compound concentration 1000.0 nM
[13] = target: Serine/threonine-protein kinase NLK (Homo sapiens) (UniProt Q9UBE8); conditions: Compound concentration 1000.0 nM
[14] = target: Phosphatidylinositol 4,5-bisphosphate 3-kinase catalytic subunit alpha isoform (Homo sapiens) (UniProt P42336); conditions: Compound concentration 1000.0 nM
[15] = target: Megakaryocyte-associated tyrosine-protein kinase (Homo sapiens) (UniProt P42679); conditions: Compound concentration 1000.0 nM
[16] = target: Ribosomal protein S6 kinase alpha-5 (Homo sapiens) (UniProt O75582); conditions: Compound concentration 1000.0 nM
[17] = target: Ephrin type-A receptor 5 (Homo sapiens) (UniProt P54756); conditions: Compound concentration 1000.0 nM
[18] = target: Platelet-derived growth factor receptor alpha (Homo sapiens) (UniProt P16234); conditions: Compound concentration 1000.0 nM
[19] = target: Cytoplasmic tyrosine-protein kinase BMX (Homo sapiens) (UniProt P51813); conditions: Compound concentration 1000.0 nM
[20] = target: Cyclin-dependent kinase 17 (Homo sapiens) (UniProt Q00537); conditions: Compound concentration 1000.0 nM
[21] = target: Proto-oncogene tyrosine-protein kinase receptor Ret (Homo sapiens) (UniProt P07949); conditions: Compound concentration 1000.0 nM
[22] = target: Macrophage-stimulating protein receptor (Homo sapiens) (UniProt Q04912); conditions: Compound concentration 1000.0 nM
[23] = target: Dual specificity tyrosine-phosphorylation-regulated kinase 2 (Homo sapiens) (UniProt Q92630); conditions: Compound concentration 1000.0 nM
[24] = target: Dual specificity tyrosine-phosphorylation-regulated kinase 1A (Homo sapiens) (UniProt Q13627); conditions: Compound concentration 1000.0 nM
[25] = target: Death-associated protein kinase 1 (Homo sapiens) (UniProt P53355); conditions: Compound concentration 1000.0 nM
[26] = test system: Receptor-type tyrosine-protein kinase FLT3 (Homo sapiens), P36888 [D835H]; conditions: Compound concentration 1000.0 nM
[27] = target: Death-associated protein kinase 2 (Homo sapiens) (UniProt Q9UIK4); conditions: Compound concentration 1000.0 nM
[28] = target: Ribosomal protein S6 kinase alpha-2 (Homo sapiens) (UniProt Q15349); conditions: Compound concentration 1000.0 nM
[29] = target: ALK tyrosine kinase receptor (Homo sapiens) (UniProt Q9UM73); conditions: Compound concentration 1000.0 nM
[30] = target: Mitogen-activated protein kinase 3 (Homo sapiens) (UniProt P27361); conditions: Compound concentration 1000.0 nM
[31] = target: Peripheral plasma membrane protein CASK (Homo sapiens) (UniProt O14936); conditions: Compound concentration 1000.0 nM
[32] = target: Cyclin-dependent kinase 13 (Homo sapiens) (UniProt Q14004); conditions: Compound concentration 1000.0 nM
[33] = target: NUAK family SNF1-like kinase 1 (Homo sapiens) (UniProt O60285); conditions: Compound concentration 1000.0 nM
[34] = target: Histamine H3 receptor (Homo sapiens) (UniProt Q9Y5N1); conditions: Compound concentration 10.0 uM
[35] = target: Phosphatidylinositol 4-phosphate 5-kinase type-1 alpha (Homo sapiens) (UniProt Q99755); conditions: Compound concentration 1000.0 nM
[36] = target: Amyloid-beta precursor protein (Homo sapiens, UniProt P05067); experiment: Aβ42 inhibition assay
[37] = target: Receptor-interacting serine/threonine-protein kinase 2 (Homo sapiens) (UniProt O43353); conditions: Compound concentration 1000.0 nM
[38] = target: Bone morphogenetic protein receptor type-1B (Homo sapiens) (UniProt O00238); conditions: Compound concentration 1000.0 nM
[39] = target: Serine/threonine-protein kinase PLK1 (Homo sapiens) (UniProt P53350); conditions: Compound concentration 1000.0 nM
[40] = target: SRSF protein kinase 2 (Homo sapiens) (UniProt P78362); conditions: Compound concentration 1000.0 nM
[41] = target: Mitogen-activated protein kinase kinase kinase kinase 3 (Homo sapiens) (UniProt Q8IVH8); conditions: Compound concentration 1000.0 nM
[42] = target: Myosin-IIIb (Homo sapiens) (UniProt Q8WXR4); conditions: Compound concentration 1000.0 nM
[43] = target: Tyrosine-protein kinase TXK (Homo sapiens) (UniProt P42681); conditions: Compound concentration 1000.0 nM
[44] = target: Serine/threonine-protein kinase PRP4 homolog (Homo sapiens) (UniProt Q13523); conditions: Compound concentration 1000.0 nM

Chain of Phosphatidylinositol 4-phosphate 5-kinase type-1 alpha (Homo sapiens) (Q99755 whole entry): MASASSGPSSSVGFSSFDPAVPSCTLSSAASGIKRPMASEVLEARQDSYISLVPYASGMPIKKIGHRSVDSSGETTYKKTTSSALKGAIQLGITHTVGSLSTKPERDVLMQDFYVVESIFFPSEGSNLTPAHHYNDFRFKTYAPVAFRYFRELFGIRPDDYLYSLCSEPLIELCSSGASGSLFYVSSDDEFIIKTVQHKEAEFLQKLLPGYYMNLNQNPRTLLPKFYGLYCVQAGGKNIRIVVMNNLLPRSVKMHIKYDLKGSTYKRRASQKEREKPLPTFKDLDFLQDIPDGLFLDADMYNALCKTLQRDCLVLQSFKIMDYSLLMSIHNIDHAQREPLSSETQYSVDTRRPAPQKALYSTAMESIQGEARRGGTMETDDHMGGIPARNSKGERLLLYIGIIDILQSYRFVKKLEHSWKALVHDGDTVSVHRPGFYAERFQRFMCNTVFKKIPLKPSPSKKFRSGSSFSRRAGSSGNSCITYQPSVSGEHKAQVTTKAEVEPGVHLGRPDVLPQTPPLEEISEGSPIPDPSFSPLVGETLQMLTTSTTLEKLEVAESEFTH
Chain of Cyclin-dependent kinase 17 (Homo sapiens) (Q00537 whole entry, looked up): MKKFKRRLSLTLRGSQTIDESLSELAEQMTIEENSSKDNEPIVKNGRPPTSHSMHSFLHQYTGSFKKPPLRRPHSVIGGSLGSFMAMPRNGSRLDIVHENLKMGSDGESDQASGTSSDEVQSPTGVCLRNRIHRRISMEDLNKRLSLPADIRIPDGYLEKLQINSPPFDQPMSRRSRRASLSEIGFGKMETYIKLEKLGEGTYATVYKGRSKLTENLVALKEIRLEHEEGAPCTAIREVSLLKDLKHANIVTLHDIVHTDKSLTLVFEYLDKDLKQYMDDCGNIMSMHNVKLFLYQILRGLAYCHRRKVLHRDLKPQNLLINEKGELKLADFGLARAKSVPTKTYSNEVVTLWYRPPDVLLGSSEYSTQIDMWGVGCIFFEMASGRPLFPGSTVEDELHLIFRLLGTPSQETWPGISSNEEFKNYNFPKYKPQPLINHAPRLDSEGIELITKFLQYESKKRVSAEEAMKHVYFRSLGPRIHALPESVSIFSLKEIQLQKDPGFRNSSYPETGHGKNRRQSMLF
Chain of Epidermal growth factor receptor (Homo sapiens) (P00533 whole entry): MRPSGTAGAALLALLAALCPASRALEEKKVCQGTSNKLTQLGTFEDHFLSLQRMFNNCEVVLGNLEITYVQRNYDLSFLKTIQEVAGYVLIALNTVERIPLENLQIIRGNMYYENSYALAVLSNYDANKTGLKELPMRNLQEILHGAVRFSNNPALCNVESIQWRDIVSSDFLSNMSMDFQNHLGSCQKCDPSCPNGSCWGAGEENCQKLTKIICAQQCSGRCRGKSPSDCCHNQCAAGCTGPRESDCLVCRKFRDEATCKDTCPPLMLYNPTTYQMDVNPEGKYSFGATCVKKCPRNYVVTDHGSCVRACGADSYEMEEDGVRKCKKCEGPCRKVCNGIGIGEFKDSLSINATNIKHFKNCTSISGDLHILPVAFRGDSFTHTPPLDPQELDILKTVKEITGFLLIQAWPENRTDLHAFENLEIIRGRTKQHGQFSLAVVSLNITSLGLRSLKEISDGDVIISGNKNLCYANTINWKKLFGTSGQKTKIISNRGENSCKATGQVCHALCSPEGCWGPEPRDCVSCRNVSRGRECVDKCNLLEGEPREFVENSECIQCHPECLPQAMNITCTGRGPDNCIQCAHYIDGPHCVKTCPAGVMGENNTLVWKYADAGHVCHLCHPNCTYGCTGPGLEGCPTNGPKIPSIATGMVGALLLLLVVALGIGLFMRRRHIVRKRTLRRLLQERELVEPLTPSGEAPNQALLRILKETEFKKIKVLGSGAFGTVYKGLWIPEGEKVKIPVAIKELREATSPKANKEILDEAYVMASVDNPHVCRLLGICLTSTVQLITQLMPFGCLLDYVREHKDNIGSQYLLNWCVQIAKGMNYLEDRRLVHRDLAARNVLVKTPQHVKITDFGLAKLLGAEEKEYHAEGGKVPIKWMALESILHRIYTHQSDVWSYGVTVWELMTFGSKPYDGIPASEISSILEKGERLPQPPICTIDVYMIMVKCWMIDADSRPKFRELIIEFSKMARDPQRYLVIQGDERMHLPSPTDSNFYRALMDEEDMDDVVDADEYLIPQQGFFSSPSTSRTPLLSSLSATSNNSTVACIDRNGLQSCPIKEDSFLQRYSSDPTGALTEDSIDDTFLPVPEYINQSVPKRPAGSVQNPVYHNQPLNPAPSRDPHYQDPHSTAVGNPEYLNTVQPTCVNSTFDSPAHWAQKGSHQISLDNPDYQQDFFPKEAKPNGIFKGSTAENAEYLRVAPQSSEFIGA
Chain of Phosphatidylinositol 3-kinase C2 domain-containing subunit gamma (Homo sapiens) (O75747 whole entry, the tested form may be a part): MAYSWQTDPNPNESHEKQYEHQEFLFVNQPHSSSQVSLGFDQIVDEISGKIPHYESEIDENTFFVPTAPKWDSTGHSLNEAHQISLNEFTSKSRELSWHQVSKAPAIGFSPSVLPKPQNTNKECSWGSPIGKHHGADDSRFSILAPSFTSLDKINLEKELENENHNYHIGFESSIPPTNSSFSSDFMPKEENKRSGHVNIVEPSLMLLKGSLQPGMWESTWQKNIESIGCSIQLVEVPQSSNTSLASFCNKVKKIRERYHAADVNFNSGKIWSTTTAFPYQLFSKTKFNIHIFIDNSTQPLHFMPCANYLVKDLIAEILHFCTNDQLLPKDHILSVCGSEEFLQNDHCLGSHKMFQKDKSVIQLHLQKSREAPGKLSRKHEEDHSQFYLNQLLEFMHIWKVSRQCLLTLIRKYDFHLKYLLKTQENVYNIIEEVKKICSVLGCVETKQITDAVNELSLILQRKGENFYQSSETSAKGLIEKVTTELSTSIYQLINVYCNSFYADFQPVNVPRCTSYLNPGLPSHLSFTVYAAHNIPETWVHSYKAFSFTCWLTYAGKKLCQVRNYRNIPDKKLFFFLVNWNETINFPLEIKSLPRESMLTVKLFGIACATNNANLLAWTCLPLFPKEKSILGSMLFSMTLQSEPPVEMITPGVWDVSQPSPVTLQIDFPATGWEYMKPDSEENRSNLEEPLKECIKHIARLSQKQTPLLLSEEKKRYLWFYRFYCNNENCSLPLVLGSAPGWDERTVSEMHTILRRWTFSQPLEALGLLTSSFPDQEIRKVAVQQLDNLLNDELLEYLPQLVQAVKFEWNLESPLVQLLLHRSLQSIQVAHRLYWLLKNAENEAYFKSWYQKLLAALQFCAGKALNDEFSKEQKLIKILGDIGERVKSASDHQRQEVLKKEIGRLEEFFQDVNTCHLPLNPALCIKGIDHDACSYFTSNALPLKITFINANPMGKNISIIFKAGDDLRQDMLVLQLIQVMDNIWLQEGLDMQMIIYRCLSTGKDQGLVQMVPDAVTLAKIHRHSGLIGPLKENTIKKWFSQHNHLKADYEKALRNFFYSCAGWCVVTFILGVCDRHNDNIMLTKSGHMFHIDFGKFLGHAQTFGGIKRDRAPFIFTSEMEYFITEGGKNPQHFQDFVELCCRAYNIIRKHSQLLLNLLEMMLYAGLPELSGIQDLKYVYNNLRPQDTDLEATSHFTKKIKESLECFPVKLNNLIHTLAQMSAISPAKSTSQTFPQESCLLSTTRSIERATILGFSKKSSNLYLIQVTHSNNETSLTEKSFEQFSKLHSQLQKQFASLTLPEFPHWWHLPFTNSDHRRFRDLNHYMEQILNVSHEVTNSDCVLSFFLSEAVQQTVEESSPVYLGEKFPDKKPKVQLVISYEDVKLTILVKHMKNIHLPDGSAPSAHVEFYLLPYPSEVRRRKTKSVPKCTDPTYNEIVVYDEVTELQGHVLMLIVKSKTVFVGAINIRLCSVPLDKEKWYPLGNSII
Chain of Vascular endothelial growth factor receptor 1 (Homo sapiens) (P17948 whole entry): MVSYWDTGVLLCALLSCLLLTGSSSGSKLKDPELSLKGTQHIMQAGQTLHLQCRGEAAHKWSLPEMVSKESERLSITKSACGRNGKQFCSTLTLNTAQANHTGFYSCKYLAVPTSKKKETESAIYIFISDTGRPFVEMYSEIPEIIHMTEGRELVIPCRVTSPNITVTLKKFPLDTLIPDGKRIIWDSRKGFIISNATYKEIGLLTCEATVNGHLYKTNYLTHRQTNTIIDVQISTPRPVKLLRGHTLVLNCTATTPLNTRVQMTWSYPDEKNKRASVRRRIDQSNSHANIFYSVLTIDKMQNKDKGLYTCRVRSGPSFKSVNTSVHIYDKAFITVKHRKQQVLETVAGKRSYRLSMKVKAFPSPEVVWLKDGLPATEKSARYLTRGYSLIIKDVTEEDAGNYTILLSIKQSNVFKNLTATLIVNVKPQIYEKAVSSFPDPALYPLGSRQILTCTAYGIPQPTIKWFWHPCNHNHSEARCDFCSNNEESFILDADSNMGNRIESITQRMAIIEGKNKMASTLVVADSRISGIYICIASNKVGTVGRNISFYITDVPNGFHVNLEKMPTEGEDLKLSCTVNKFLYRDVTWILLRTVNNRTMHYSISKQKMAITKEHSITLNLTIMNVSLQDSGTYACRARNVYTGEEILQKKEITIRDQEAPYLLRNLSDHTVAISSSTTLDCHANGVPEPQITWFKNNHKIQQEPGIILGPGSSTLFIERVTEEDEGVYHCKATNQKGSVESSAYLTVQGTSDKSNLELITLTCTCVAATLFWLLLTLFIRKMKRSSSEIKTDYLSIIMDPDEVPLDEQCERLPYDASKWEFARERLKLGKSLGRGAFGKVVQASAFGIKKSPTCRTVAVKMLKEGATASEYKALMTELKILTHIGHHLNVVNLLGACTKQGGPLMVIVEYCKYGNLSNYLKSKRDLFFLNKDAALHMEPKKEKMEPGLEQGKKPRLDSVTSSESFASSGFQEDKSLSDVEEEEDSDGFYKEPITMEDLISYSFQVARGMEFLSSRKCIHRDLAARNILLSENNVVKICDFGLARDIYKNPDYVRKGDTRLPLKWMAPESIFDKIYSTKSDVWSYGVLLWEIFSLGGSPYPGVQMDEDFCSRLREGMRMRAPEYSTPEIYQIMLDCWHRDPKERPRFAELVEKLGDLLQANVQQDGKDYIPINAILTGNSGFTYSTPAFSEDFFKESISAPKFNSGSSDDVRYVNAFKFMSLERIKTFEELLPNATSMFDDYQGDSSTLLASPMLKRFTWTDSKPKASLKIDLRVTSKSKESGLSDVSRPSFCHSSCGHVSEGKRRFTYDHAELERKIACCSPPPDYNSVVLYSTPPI

## COc1cc(-c2cn([C@H]3CCc4ccccc4N(CC(F)(F)F)C3=O)nn2)ccc1-n1ccc(C)n1
[1]
  residual activity: 100%
[2]
  residual activity: 100%
[3]
  residual activity: 100%
[4]
  residual activity: 99%
[5]
  residual activity: 71%
[6]
  residual activity: 100%
[7]
  residual activity: 100%
[8]
  residual activity: 65%
[9]
  residual activity: 100%
[10]
  inhibition: -6.73%
[11]
  residual activity: 100%
[12]
  residual activity: 100%
[13]
  residual activity: 100%
[14]
  residual activity: 69%
[15]
  residual activity: 80%
[16]
  residual activity: 71%
[17]
  residual activity: 100%
[18]
  residual activity: 88%
[19]
  residual activity: 100%
[20]
  residual activity: 100%
[21]
  residual activity: 91%
[22]
  residual activity: 96%
[23]
  residual activity: 94%
[24]
  residual activity: 83%
[25]
  residual activity: 79%
[26]
  residual activity: 100%
[27]
  residual activity: 100%
[28]
  residual activity: 99%
[29]
  residual activity: 92%
[30]
  residual activity: 100%
[31]
  residual activity: 80%
[32]
  residual activity: 100%
[33]
  residual activity: 92%
[34]
  inhibition: 20.9%
[35]
  residual activity: 96%
[36]
  IC50: > 10 µM (not active)
[37]
  residual activity: 93%
[38]
  residual activity: 100%
[39]
  residual activity: 84%
[40]
  residual activity: 81%
[41]
  residual activity: 100%
[42]
  residual activity: 100%
[43]
  residual activity: 84%
[44]
  residual activity: 93%

## COc1cc(-c2cn([C@H]3CCc4c(F)cccc4N(CC(F)(F)F)C3=O)nn2)ccc1-n1cnc(C)c1
[1]
  residual activity: 100%
[2]
  residual activity: 100%
[3]
  residual activity: 100%
[4]
  residual activity: 100%
[5]
  residual activity: 93%
[6]
  residual activity: 100%
[7]
  residual activity: 100%
[8]
  residual activity: 72%
[9]
  residual activity: 100%
[10]
  inhibition: 22.6%
[11]
  residual activity: 97%
[12]
  residual activity: 93%
[13]
  residual activity: 100%
[14]
  residual activity: 94%
[15]
  residual activity: 100%
[16]
  residual activity: 73%
[17]
  residual activity: 100%
[18]
  residual activity: 100%
[19]
  residual activity: 100%
[20]
  residual activity: 84%
[21]
  residual activity: 84%
[22]
  residual activity: 100%
[23]
  residual activity: 100%
[24]
  residual activity: 84%
[25]
  residual activity: 99%
[26]
  residual activity: 98%
[27]
  residual activity: 100%
[28]
  residual activity: 100%
[29]
  residual activity: 100%
[30]
  residual activity: 100%
[31]
  residual activity: 71%
[32]
  residual activity: 99%
[33]
  residual activity: 100%
[34]
  inhibition: 23.3%
[35]
  residual activity: 100%
[36]
  IC50: 0.031 µM (active)
[37]
  residual activity: 100%
[38]
  residual activity: 100%
[39]
  residual activity: 100%
[40]
  residual activity: 100%
[41]
  residual activity: 100%
[42]
  residual activity: 100%
[43]
  residual activity: 100%
[44]
  residual activity: 100%
